Nine molecules from patent US20040010001A1, “Methods and compositions for modulating cell proliferation and cell death” (priority 1999, published 2004) can be followed below.

Read-outs that look alike come from different tables or passages of the source.

The test system of this assay is Human prostate PC3 tumor cells. The experiment in a line: aFGF/bFGF-induced resistance and reversal by suramin, sulforhodamine B assay. In kind it is cell-based. As to conditions: for Resistance, Folds, aFGF 0.3 ng/ml + bFGF 1 ng/ml / Resistance, Folds, aFGF 1 ng/ml + bFGF 3 ng/ml: no suramin, relative to control. As for the experimental part: The experimental conditions are described briefly below. […] Cell number was measured using the sulforhodamine B assay which measures the total protein concentration. […] The FGF-induced resistance was dependent on the FGF concentrations, with a higher resistance at higher FGF concentrations.
Background: Sulforhodamine B stains cellular protein and so reports cell mass.

The mark [1] stands for this setting: read-out: IC50, Control (drug treatment only, without FGF treatment), No suramin, drug 96 hours.
Where [2] appears, read: read-out: IC50, Control (without FGF treatment), Suramin, 15 μM, drug 96 hours with 15 μM suramin.
Where [3] appears, read: read-out: IC50, aFGF 0.3 ng/ml + bFGF 1 ng/ml, No suramin, FGF pretreatment 96 hours, drug 96 hours.
The mark [4] stands for this setting: read-out: IC50, aFGF 0.3 ng/ml + bFGF 1 ng/ml, With suramin, FGF pretreatment 96 hours, drug 96 hours with 15 micromolar suramin.
Setting [5] is: read-out: IC50, aFGF 1 ng/ml + bFGF 3 ng/ml, No suramin, FGF pretreatment 96 hours, drug 96 hours.
[6] abbreviates: read-out: IC50, aFGF 1 ng/ml + bFGF 3 ng/ml, With suramin, FGF pretreatment 96 hours, drug 96 hours with 15 micromolar suramin.
Setting [7] is: Homo sapiens, read-out: IC50, Control (drug treatment only, without FGF treatment), No suramin, drug 96 hours.
[8] abbreviates: Homo sapiens, read-out: IC50, aFGF 0.3 ng/ml + bFGF 1 ng/ml, No suramin, FGF pretreatment 96 hours, drug 96 hours.
[9] abbreviates: Homo sapiens, read-out: IC50, aFGF 1 ng/ml + bFGF 3 ng/ml, No suramin, FGF pretreatment 96 hours, drug 96 hours.

Regarding `CC(O)CCC(=O)c1ccoc1` (centres unmarked) [4-Ipomeanol], the “Resistance, Folds, aFGF 0.3 ng/ml + bFGF 1 ng/ml” value came to 0.92 Folds and the “Resistance, Folds, aFGF 1 ng/ml + bFGF 3 ng/ml” value is 1.25 Folds. Also, the IC50 under setting [1] came to 4110 µM. Also, the IC50 under setting [2] was found to be 4510 µM. For the same molecule, the IC50 under setting [3] was 3780 µM. In addition, under setting [4], the IC50 worked out at 5040 µM. Besides, the IC50 under setting [5] was 5130 µM. Moreover, under setting [6], the IC50 came to 3930 µM.
As for `Nc1ncn([C@H]2C[C@H](O)[C@@H](CO)O2)c(=O)n1` [5-Aza 2′-deoxycytidine], the “Resistance, Folds, aFGF 0.3 ng/ml + bFGF 1 ng/ml” value turned out to be 2.12 Folds and the “Resistance, Folds, aFGF 1 ng/ml + bFGF 3 ng/ml” value was 3.96 Folds. Also, the IC50 under setting [7] worked out at 6.63 µM. For the same molecule, the IC50 under setting [8] worked out at 14 µM. Moreover, the IC50 under setting [9] was found to be 26.3 µM. Moreover, the IC50 under setting [2] is 6.14 µM. In addition, the IC50 under setting [4] came out at 6.54 µM. Besides, the IC50 under setting [6] stood at 6.39 µM.
With `Nc1ncn([C@@H]2O[C@H](CO)[C@@H](O)[C@H]2O)c(=O)n1` [5-Azacitidine], the “Resistance, Folds, aFGF 0.3 ng/ml + bFGF 1 ng/ml” value came out at 2.27 Folds and the “Resistance, Folds, aFGF 1 ng/ml + bFGF 3 ng/ml” value stood at 4.33 Folds. Further, the IC50 under setting [7] came out at 6.09 µM. In addition, the IC50 under setting [8] is 13.8 µM. Under setting [9], the IC50 is 26.4 µM. Moreover, under setting [2], the IC50 was 6.94 µM. The IC50 under setting [4] amounted to 6.45 µM. Also, the IC50 under setting [6] was 7.32 µM.
Take `O=c1[nH]c(=O)n([C@@H]2O[C@H](CO)[C@@H](O)[C@H]2O)cc1F` [5-Fluorouridine]: the “Resistance, Folds, aFGF 0.3 ng/ml + bFGF 1 ng/ml” value was 1.57 Folds and the “Resistance, Folds, aFGF 1 ng/ml + bFGF 3 ng/ml” value is on record as 2.50 Folds. The IC50 under setting [7] came to 0.28 µM. For the same molecule, the IC50 under setting [8] is 0.44 µM. The IC50 under setting [9] stood at 0.7 µM. The IC50 under setting [4] turned out to be 0.33 µM. The IC50 under setting [6] amounted to 0.29 µM.
On to `O=c1[nH]c(=O)n([C@H]2C[C@H](O)[C@@H](CO)O2)cc1F` [5-fluorodoeoxyuridine], for which the “Resistance, Folds, aFGF 0.3 ng/ml + bFGF 1 ng/ml” value is listed as 1.54 Folds and the “Resistance, Folds, aFGF 1 ng/ml + bFGF 3 ng/ml” value is given as 2.09 Folds. The IC50 under setting [7] is 0.00588 µM. The IC50 under setting [8] was 0.00903 µM. For the same molecule, the IC50 under setting [9] is 0.0123 µM. Besides, the IC50 under setting [2] came out at 0.00711 µM. Besides, the IC50 under setting [4] turned out to be 0.0066 µM. In addition, the IC50 under setting [6] worked out at 0.00575 µM.
Consider `Sc1ncnc2nc[nH]c12` [6-Mercaptopurine], for which the “Resistance, Folds, aFGF 0.3 ng/ml + bFGF 1 ng/ml” value was 1.90 Folds and the “Resistance, Folds, aFGF 1 ng/ml + bFGF 3 ng/ml” value was 3.50 Folds. The IC50 under setting [7] worked out at 1.57 µM. Under setting [8], the IC50 stood at 2.99 µM. Further, under setting [9], the IC50 is 5.5 µM. In addition, under setting [2], the IC50 came out at 1.67 µM. Further, the IC50 under setting [4] was determined as 1.7 µM. For the same molecule, the IC50 under setting [6] was 1.55 µM.
In the case of `Nc1nc2nc[nH]c2c(=S)[nH]1` [6-Thioguanine], the “Resistance, Folds, aFGF 0.3 ng/ml + bFGF 1 ng/ml” value is given as 3.43 Folds and the “Resistance, Folds, aFGF 1 ng/ml + bFGF 3 ng/ml” value is 5.14 Folds. Further, the IC50 under setting [7] was 0.28 µM. Also, the IC50 under setting [8] was determined as 0.96 µM. Further, the IC50 under setting [9] is 1.44 µM. Further, the IC50 under setting [2] was found to be 0.32 µM. In addition, the IC50 under setting [4] amounted to 0.32 µM. Further, the IC50 under setting [6] is 0.3 µM.
As for `N[C@H](C(=O)O)[C@@H]1CC(Cl)=NO1` [Acivicin], the “Resistance, Folds, aFGF 0.3 ng/ml + bFGF 1 ng/ml” value is listed as 2.11 Folds and the “Resistance, Folds, aFGF 1 ng/ml + bFGF 3 ng/ml” value stood at 3.49 Folds. Besides, the IC50 under setting [7] amounted to 1.58 µM. Further, the IC50 under setting [8] turned out to be 3.34 µM. In addition, the IC50 under setting [9] turned out to be 5.52 µM. Also, the IC50 under setting [2] amounted to 1.28 µM. For the same molecule, the IC50 under setting [4] turned out to be 1.65 µM. For the same molecule, under setting [6], the IC50 amounted to 1.63 µM.
Turning to `Nc1ncnc2c1ncn2[C@@H]1O[C@H](CO)[C@@H](O)[C@@H]1O` [Adenosine arabinoside (Ara-A), Adenosine arabinoside], the “Resistance, Folds, aFGF 0.3 ng/ml + bFGF 1 ng/ml” value is recorded as 1.56 Folds and the “Resistance, Folds, aFGF 1 ng/ml + bFGF 3 ng/ml” value was 2.13 Folds. Further, the IC50 under setting [1] amounted to 21.5 µM. In addition, the IC50 under setting [2] was determined as 22.7 µM. Under setting [3], the IC50 stood at 33.6 µM. For the same molecule, the IC50 under setting [4] amounted to 19 µM. For the same molecule, the IC50 under setting [5] came out at 45.7 µM. The IC50 under setting [6] came out at 21 µM.
